Patent US12559464B2, “Quinazolinone dione compounds and uses thereof” (Edgewise Therapeutics, Inc., priority 2023, dated 2026)

Key:
[1] = system: myosin ATPase, Rabbit Psoas myofibrils; test: Myofibril ATPase assay, rabbit psoas (skeletal) myofibrils; type: biochemical; conditions: Rabbit Psoas Prep pCa 25 GEOM_MEAN; for Rabbit Psoas EC25 (Y75 value): concentration required to reduce myosin ATP-ase activity by 25%
Description: [Worded in the source for another species; this species is reported under the same test.] (§1) Myofibril ATPase assays are known in the art to be useful in evaluating small molecules for the treatment of HCM and other cardiac indications. Myosin ATPase activity is assessed by using a coupled reaction system, in which ADP generated by the myosin ATPase function is coupled to the disappearance of NADH through the pyruvate kinase/lactate dehydrogenase (PK-LDH) system. ATPase activity produces ADP, which is used as a substrate for PK to produce pyruvate and regenerate ATP. The pyruvate is then used as a substrate by LDH to oxidize NADH to NAD+. The rate of the reaction is monitored through the time-dependent disappearance of NADH using absorbance at 340 nm, which, when the couple system is in stoichiometric excess, is directly correlated to the ATPase activity of the myosin. Inhibition of ATPase activity by the assayed compounds is indicated by a reduced rate of NADH loss, relative to vehicle-treated controls, over the experimental time window. Porcine Ventricle are the primary sources of myofibril material.
(§2) Materials: The following stock solutions and reagents were used in the Myofibril ATPase Assay: Stock Solutions; PIPES, 200 mM and 120 mM in H2O, pH 7.0; MgCl2 in H2O, 200 mM; PM12 Buffer, 10×: 120 mM PIPES (from 200 mM stock), 20 mM MgCl2 (from 200 mM stock); PBS Buffer, 1X: 135 mM NaCl, […], 10 mM Na(PO4)2, 1.8 mM K2(PO4), pH 7.4; EGTA in H2O, 250 mM; CaCl2) in H2O, 500 mM; DTT in H2O, 1 M; BSA in H2O, 10 mg/mL; ATP in 1×PBS, 50 mM; NADH in 1X PM12 and 1 mM DTT, 26 mM; PEP in 1X PM12, 78 mM, pH 7.0.
(§3) Stock Solutions of pCa buffer. Combine PIPES, CaCl2, and EGTA solutions with water. Adjust pH to 7.0 and bring final volume to 100 mL.
(§4) Buffer A & Buffer B. Prepare buffers A and B according to the table below.
(§5) Myofibril ATPase Assay Procedure: BSA, ATP, NADH, PEP, and DTT solutions were thawed at room temperature, then transferred to ice. Pellet-frozen myofibrils were transferred with approximately twice the required volume into a sufficiently large tube and capped. Myofibrils were thawed by rolling in a water bath for approximately 15 min at room temperature and cooled on ice. Buffers A and B were prepared by adjusting volumes as necessary for required number of wells and stored on ice. 0.5 μL of the compounds to be assayed were added into wells. 25 μL of Buffer A was dispensed into the wells, followed by 25 μL of Buffer B. The wells were measured for absorbance at 340 nm, using a kinetic protocol in which the wells are read every 1.5-2 min for 75 min. Assay data analysis was performed using a python script that filtered the raw data to retain those points falling between a starting and ending time and between a maximum and minimum absorbance, then used the filtered time-domain 340 nm absorbance data in each well to calculate a slope via linear regression analysis in units of mAU/min. Compound slopes were normalized between 100% and 0% activity, where 100% represented the slope of wells containing only compound vehicle, and fit to a 4-parameter logistic model. In addition to the fit parameters, the EC25% values were calculated, relative to the 100% normalized value. Additionally, the Y125 values were calculated for compounds that increased myosin ATP-ase activity. Fit parameters, calculated effective concentrations, filtered raw data, and calculated slopes were exported, in addition to compound-specific graphs of normalized ATPase activity versus concentration in μM. Each value reported in Table 8 is either a Y75 value or a Y125 value. Values without pound sign, #, are Y75 values, which reflect the concentration required to reduce myosin ATP-ase activity by 25% (e.g., Y-axis activity value is 75% of initial value), relative to myosin ATP-ase activity in the absence of exogenous compound. […]

[2] = system: myosin ATPase, Porcine Atria myofibrils; test: Myofibril ATPase assay, porcine atria myofibrils; type: biochemical; conditions: concentration required to reduce myosin ATP-ase activity by 25%; Porcine Atria Prep pCa 25 GEOM_MEAN
[3] = molecular target: T1, myosin ATPase, Porcine Ventricle myofibrils (Sus scrofa, UniProt P79293); test: Myofibril ATPase assay, porcine ventricle myofibrils; type: biochemical, porcine (Yucatan minipigs); conditions: concentration required to reduce myosin ATP-ase activity by 25%; Porcine Ventricle Prep pCa 25 GEOM_MEAN
T1 construct: Myofibrils from porcine cardiac muscle was isolated from the left ventricle of Yucatan minipigs; tissue Exemplar Genetics; host or cells: left ventricle of Yucatan minipigs, myofibrils
Description: as §1, §2, §3, §4, §5

T1 sequence (P79293 whole entry): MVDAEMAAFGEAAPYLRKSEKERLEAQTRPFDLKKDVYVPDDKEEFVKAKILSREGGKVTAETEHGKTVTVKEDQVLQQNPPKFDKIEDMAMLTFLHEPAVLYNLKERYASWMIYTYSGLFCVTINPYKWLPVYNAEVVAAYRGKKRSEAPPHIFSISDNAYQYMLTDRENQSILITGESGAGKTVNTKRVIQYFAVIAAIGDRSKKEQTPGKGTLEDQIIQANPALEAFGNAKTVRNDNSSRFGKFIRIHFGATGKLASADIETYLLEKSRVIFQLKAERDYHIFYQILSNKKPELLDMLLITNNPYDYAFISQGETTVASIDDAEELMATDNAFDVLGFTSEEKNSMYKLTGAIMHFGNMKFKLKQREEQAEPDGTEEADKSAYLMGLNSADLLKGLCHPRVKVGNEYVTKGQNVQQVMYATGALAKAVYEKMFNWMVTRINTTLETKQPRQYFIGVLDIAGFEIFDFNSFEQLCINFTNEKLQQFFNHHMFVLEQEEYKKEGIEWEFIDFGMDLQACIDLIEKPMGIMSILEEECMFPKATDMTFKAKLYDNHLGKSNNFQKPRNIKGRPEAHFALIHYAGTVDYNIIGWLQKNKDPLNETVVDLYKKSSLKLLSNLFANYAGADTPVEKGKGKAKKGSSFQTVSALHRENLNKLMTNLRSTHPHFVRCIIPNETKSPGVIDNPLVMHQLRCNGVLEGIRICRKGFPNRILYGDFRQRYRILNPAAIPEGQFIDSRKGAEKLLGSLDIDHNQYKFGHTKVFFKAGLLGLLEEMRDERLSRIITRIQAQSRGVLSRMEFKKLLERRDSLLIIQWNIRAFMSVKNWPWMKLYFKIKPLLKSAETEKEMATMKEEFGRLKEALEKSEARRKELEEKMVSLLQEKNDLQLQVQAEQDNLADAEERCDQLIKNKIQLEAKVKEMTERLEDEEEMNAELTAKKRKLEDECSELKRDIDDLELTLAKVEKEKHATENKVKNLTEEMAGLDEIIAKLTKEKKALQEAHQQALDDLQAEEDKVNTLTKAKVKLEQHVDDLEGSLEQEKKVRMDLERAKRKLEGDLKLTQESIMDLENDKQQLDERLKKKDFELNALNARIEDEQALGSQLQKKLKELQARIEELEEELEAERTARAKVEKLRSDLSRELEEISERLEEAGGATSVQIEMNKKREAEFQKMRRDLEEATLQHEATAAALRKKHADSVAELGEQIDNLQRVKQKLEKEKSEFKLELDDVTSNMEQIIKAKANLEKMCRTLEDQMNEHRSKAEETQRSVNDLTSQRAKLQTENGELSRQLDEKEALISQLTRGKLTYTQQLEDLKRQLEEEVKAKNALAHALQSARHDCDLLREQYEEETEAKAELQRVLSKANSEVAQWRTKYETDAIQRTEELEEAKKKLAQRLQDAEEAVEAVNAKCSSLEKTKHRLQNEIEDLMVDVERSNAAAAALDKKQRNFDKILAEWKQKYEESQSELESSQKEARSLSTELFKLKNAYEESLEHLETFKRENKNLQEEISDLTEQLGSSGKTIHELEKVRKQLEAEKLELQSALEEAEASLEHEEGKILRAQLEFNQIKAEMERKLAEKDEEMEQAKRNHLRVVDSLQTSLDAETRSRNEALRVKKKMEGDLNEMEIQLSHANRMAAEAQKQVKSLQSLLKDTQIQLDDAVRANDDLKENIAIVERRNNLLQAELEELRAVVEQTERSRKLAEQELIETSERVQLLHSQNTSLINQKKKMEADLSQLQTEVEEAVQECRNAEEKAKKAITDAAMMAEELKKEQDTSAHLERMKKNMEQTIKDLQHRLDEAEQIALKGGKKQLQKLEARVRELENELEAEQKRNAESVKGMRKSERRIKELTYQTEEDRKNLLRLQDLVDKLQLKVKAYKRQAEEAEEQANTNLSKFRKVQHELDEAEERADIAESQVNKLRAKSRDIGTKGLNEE

Row | Rabbit Psoas EC25 (Y75 value) [1] | Porcine Atria EC25 (Y75 value) [2] | Porcine Ventricle EC25 (Y75 value) [3] | Rabbit Psoas Y125 value (marked #) ([1]; concentration required to increase myosin ATP-ase activity by 25%) | Structure (SMILES)
1 | 4.019 µM | 3.03 µM | 7.299 µM |  | Cc1c(F)ccc2[nH]c(=O)n(CC(=O)N[C@H]3COc4cc(C#N)cnc43)c(=O)c12 (single isomer, unassigned) [Compound 702]
2 | 100 µM | 100 µM | 100 µM |  | CC(C)C[C@@H](C(=O)N[C@@H](C)c1ncc(F)cc1F)n1c(=O)[nH]c2ccccc2c1=O (single isomer, unassigned) [Compound 27]
3 | 100 µM | 100 µM | 100 µM |  | O=C(Cn1c(=O)[nH]c2ccccc2c1=O)NC1CNC(=O)c2cc(F)cc(F)c21 (stereo not drawn) [Compound 46, N-(5,7-difluoro-1-oxo-1,2,3,4-tetrahydroisoquinolin-4-yl)-2-(2,4-dioxo-1,4-dihydroquinazolin-3(2H)-yl)acetamide]
4 | 7.437 µM | 8.617 µM | 100 µM |  | C[C@H](NC(=O)Cn1c(=O)[nH]c2cccc(F)c2c1=O)c1ncc(C#N)cn1 (single isomer, unassigned) [Compound 202]
5 | 0.828 µM | 1.375 µM | 28.36 µM |  | C[C@H](NC(=O)[C@@H](C)n1c(=O)[nH]c2ccc(F)cc2c1=O)c1ccc(F)cc1F [Compound 41, (R)-N-((S)-1-(2,4-difluorophenyl)ethyl)-2-(6-fluoro-2,4-dioxo-1,4-dihydroquinazolin-3(2H)-yl)propanamide]
6 | 100 µM | 100 µM | 100 µM |  | COc1ccc(F)cc1C(C)NC(=O)Cn1c(=O)[nH]c2ccccc2c1=O (stereo not drawn) [Compound 520, 2-(2,4-dioxo-1,4-dihydroquinazolin-3(2H)-yl)-N-(1-(5-fluoro-2-methoxyphenyl)ethyl)acetamide]
7 | 2.538 µM | 1.074 µM | 100 µM |  | C[C@@H](NC(=O)Cn1c(=O)[nH]c2ccc(F)c(F)c2c1=O)c1ccc(C#N)nn1 (single isomer, unassigned) [Compound 3]
8 | 0.817 µM | 5.405 µM | 100 µM |  | O=C(Cn1c(=O)[nH]c2ccccc2c1=O)NC(CO)c1ccc(F)cc1F (stereo not drawn) [Compound 87, N-(1-(2,4-difluorophenyl)-2-hydroxyethyl)-2-(2,4-dioxo-1,4-dihydroquinazolin-3(2H)-yl)acetamide]
9 | 0.512 µM | 0.378 µM | 5.522 µM |  | C[C@H](NC(=O)Cn1c(=O)[nH]c2ccc(F)c(F)c2c1=O)c1ccc(C#N)cn1 (single isomer, unassigned) [Compound 18]
10 | 100 µM | 100 µM | 100 µM |  | C[C@H](NC(=O)C(C)(C)n1c(=O)[nH]c2ccccc2c1=O)c1ccc(F)cc1F [Compound 42, (S)-N-(1-(2,4-difluorophenyl)ethyl)-2-(2,4-dioxo-1,4-dihydroquinazolin-3(2H)-yl)-2-methylpropanamide]
11 | 100 µM | 100 µM | 100 µM |  | C[C@H](NC(=O)Cn1c(=O)[nH]c2ccnc(O)c2c1=O)c1ccc(F)cc1F [Compound 59, (S)-N-(1-(2,4-difluorophenyl)ethyl)-2-(5-hydroxy-2,4-dioxo-1,4-dihydropyrido[4,3-d]pyrimidin-3(2H)-yl)acetamide]
12 | 100 µM | 100 µM | 100 µM |  | C[C@H](NC(=O)C(c1cccnc1)n1c(=O)[nH]c2ccccc2c1=O)c1ccc(F)cc1F (single isomer, unassigned) [Compound 508]
13 | 13.814 µM | 43.27 µM | 100 µM |  | C[C@H](NC(=O)[C@@H](CC1CC1)n1c(=O)[nH]c2ccccc2c1=O)c1ccc(F)cc1F (single isomer, unassigned) [Compound 502]
14 | 0.06 µM | 0.10 µM | 0.25 µM |  | Cc1c(F)ccc2[nH]c(=O)n(CC(=O)N[C@H](C)c3ccc(C#N)cn3)c(=O)c12 (single isomer, unassigned) [Compound 3009]
15 | 0.59 µM | 0.699 µM | 20.04 µM |  | C[C@@H](NC(=O)Cn1c(=O)[nH]c2ccc(F)cc2c1=O)c1ncc(C#N)cn1 (single isomer, unassigned) [Compound 1]
16 | 5.692 µM | 0.3543 µM | 1.467 µM |  | C[C@@H](NC(=O)Cn1c(=O)[nH]c2ccc(F)cc2c1=O)c1ncc(C#N)cc1F (single isomer, unassigned) [Compound 7]
17 | 0.156 µM | 0.4184 µM | 7.872 µM |  | O=C(Cn1c(=O)[nH]c2ccccc2c1=O)N[C@H]1CCc2cc(F)cc(F)c21 (single isomer, unassigned) [Compound 48]
18 | 12.297 µM | 63.31 µM | 100 µM |  | C[C@H](NC(=O)Cn1c(=O)[nH]c2c(F)cccc2c1=O)c1ccc(F)cc1F [Compound 406, (S)-N-(1-(2,4-difluorophenyl)ethyl)-2-(8-fluoro-2,4-dioxo-1,4-dihydroquinazolin-3(2H)-yl)acetamide]
19 | 0.043 µM | 0.048 µM | 0.119 µM |  | Cc1cc(C#N)cnc1[C@@H](C)NC(=O)Cn1c(=O)[nH]c2ccc(F)c(F)c2c1=O (single isomer, unassigned) [Compound 13]
20 |  | 68.73 µM | 100 µM | 7.64^#^ μM | CC(C)C[C@H](C(=O)N[C@@H](C)c1ccc(F)cc1F)n1c(=O)[nH]c2ccccc2c1=O (single isomer, unassigned) [Compound 32]
21 | 0.40 µM | 0.19 µM | 1.04 µM |  | C[C@H](NC(=O)C1(n2c(=O)[nH]c3ccc(F)c(F)c3c2=O)CC1)c1ncc(C#N)cc1F (single isomer, unassigned) [Compound 3013]
22 | 0.36 µM | 0.1046 µM | 1.526 µM |  | Cc1cc(F)ccc1[C@H](C)NC(=O)Cn1c(=O)[nH]c2ccccc2c1=O (single isomer, unassigned) [Compound 503]
23 | 100 µM | 100 µM | 100 µM |  | C[C@H](NC(=O)Cn1c(=O)[nH]c2ccccc2c1=O)c1ccccc1 (single isomer, unassigned) [Compound 534]
